These results are taken from ChEMBL document CHEMBL1201862, “PubChem BioAssay data set” (2004).

Series [1] in a line: cytotoxicity in HEK-293T cells, dose response, cytotoxicity control for BCR NF-kB inhibitor project, luminescence, B-cell screen hits (AID 489021).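 Note: HEK-293T cells carrying an NF-kB luciferase reporter; cells exposed to compound for about 14 hours before viability readout.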 Type of series: functional, cell-based.
Series [2] addresses T1, Delta-type opioid receptor (Homo sapiens, UniProt P41143). As to the kind of experiment: HTS Image-Based Screen for Antagonists of the DOR Receptor. [Related pubchem assays (depositor defined):AID1777, AID1785, AID1786, AID2133]. Type of series: functional.
For a further series, the target named is Mu-type opioid receptor (Homo sapiens, UniProt P35372). As to the kind of experiment: HTS Image-Based Screen for Agonists of the MOR Receptor. [Related pubchem assays (depositor defined):AID1777, AID1785, AID1786, AID2133]. Type of series: functional.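 Note: imaging of beta-arrestin GFP recruitment into spots after receptor activation.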
Series [3] addresses T1, Delta-type opioid receptor. Description: HTS Image-Based Screen for Agonists of the DOR Receptor. [Related pubchem assays (depositor defined):AID1777, AID1786, AID2133]. Type of series: functional.
For series [4], the target named is T2, Kappa-type opioid receptor (Homo sapiens, UniProt P41145). Type of series: functional.
For series [5], the target named is T3, Beta-galactosidase (Escherichia coli, UniProt Q8VNN2). Type of series: functional.
Series [6] deals with T2, Kappa-type opioid receptor. Type of series: functional. The source holds these as a separate data set.
For series [7], the target named is T3, Beta-galactosidase. Description: PubChem AID 485352. Type of series: functional.
Series [8] is described as follows: inhibitors of intracellular T. cruzi replication, confirmation, NIH3T3 host cells, beta-gal luminescence (AID 2044).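 Note: intracellular parasites grown in NIH/3T3 mouse fibroblasts as host cells; luminescent beta-galactosidase reporter signal from transgenic T. cruzi replicating inside host cells; inhibitors lower the luminescence signal.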 Type of series: functional, cell-based.
Series [9] has as its target T4, Type-1 angiotensin II receptor (Homo sapiens, UniProt P30556).
T4 sequence (P30556 whole entry): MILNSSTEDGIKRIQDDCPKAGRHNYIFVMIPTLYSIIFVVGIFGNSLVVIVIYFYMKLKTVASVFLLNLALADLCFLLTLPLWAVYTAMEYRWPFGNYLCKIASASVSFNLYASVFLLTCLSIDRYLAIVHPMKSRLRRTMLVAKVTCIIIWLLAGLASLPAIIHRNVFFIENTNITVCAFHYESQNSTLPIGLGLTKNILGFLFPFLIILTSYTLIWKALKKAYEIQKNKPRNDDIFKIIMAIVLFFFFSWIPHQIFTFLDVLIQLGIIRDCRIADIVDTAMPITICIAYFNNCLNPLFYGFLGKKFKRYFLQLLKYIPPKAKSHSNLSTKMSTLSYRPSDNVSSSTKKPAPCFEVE
As to the kind of experiment: AT1 receptor antagonists, dose response, selectivity assay for APJ receptor antagonist project, cell-based, uHTS hits (AID 463214).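 Note: antagonist potency against angiotensin II stimulated AT1 response.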 Type of series: functional.

The nature of series [10]: cytotoxicity toward NIH3T3 fibroblasts, dose response, counter-screen, cell-based, ATP luminescence, mouse fibroblasts (AID 2010).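 Note: cells exposed to compound for about 90 hours before reading.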 Type of series: functional.
Series [11] in a line: Shn3 3'UTR reporter inhibitors, dose response, cell-based, Clone20 osteoblasts, firefly luciferase, cherry-picked (AID 624132).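 Note: firefly luciferase luminescence from reporter carrying the Shn3 3'UTR in osteoblasts.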 Type of series: functional.
Series [12] addresses 26S proteasome non-ATPase regulatory subunit 14 (Homo sapiens, UniProt O00487). Description: inhibition of proteasome subunit RPN11 – biochemical, fluorescence polarization, uHTS hits, confirmation (AID 602368). Type of series: functional.
A short description of series [13]: HepG2 cell cytotoxicity, dose response, cytotoxicity control for Shn3 inhibitor project, CellTiter-Glo, cherry-picked (AID 624134). Type of series: functional, cell-based. On the technique in general: Cellular ATP, detected with luciferase, serves as a proxy for viable cell number.
Series [14] addresses 72 kDa type IV collagenase (Homo sapiens, UniProt P08253). Description: Dose Response validation of uHTS RPN11 inhibitor hits using a MMP-2 Fluorescence assay. Type of series: functional.
For a further series, the target named is Prothrombin (Bos taurus, UniProt P00735). Description: thrombin inhibition, dose response, biochemical, fluorescence polarization, uHTS hits (AID 602369). Type of series: functional. (Polarisation of emitted light reports the rotation of a fluorescent probe.)
The nature of series [15]: reduction of Shn3 3'UTR firefly luciferase signal, dose response, Schnurri-3 inhibitor project, cell-based, Clone20 osteoblasts, cherry-pick, set 2 (AID 720490).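 Note: actives lower the luminescence signal as inhibitors.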 Type of series: functional.
In a further series the target is Cytochrome P450 2C9 (Homo sapiens, UniProt P11712).
The target of series [16] is G-protein coupled receptor 35 (Homo sapiens, UniProt Q9HC97). Description: GPR35 antagonists blocking zaprinast-driven arrestin recruitment, primary screen, imaging, U2OS, beta-arrestin-GFP, zaprinast agonist (AID 2058).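 Note: antagonist potency meaning inhibition of agonist-induced arrestin redistribution.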 Type of series: functional.
Series [17] addresses Sphingosine 1-phosphate receptor 2 (Homo sapiens, UniProt O95136). As to the kind of experiment: Dose Response Cell Based Assay for Antagonists of the S1P2 Receptor. [Related pubchem assays: 856, 736 ]. Type of series: functional.
Series [18] in a line: cytotoxicity in HPDE-C7 cells, cell-based, fluorescence, HTS (AID 430). Type of series: functional. The conditions noted are these: Homo sapiens.
The nature of series [19]: microbe, parasite or virus in culture. The conditions noted are these: Mycobacterium tuberculosis. Type of series: functional.
Series [20] can be described thus: cytotoxicity in KRAS-transformed pancreatic duct cells, primary screen, cell-based, fluorescence, HTS (AID 431). Type of series: functional. The following applies: Homo sapiens.
The target in series [21] is T5, Heat shock factor protein 1 (Mus musculus, UniProt P38532).
T5 sequence (P38532 whole entry): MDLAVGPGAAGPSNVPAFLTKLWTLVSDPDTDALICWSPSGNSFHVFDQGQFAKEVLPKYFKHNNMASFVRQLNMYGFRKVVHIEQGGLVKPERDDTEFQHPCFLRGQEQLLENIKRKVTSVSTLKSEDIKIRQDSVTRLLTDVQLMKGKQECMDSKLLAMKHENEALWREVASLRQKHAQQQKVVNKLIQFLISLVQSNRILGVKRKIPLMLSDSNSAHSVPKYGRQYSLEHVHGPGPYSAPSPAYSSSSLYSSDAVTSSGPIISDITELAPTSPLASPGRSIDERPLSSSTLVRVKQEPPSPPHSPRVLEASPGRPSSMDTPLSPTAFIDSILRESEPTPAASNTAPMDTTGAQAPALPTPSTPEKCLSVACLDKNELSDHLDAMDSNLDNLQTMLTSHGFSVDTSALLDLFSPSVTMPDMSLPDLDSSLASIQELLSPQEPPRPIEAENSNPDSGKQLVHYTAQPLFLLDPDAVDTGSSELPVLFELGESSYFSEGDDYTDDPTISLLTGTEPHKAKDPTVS
Description: HSF1 potentiators in luciferase reporter cells, confirmation, cell-based, NIH3T3, luminescence, dose retest (AID 435004).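 Note: stress induced by proteasome inhibitor MG132 added 30 min after compound; luciferase reporter driven by HSF1 response element in NIH3T3 cells; actives raise luminescence as potentiators of the MG132 stress response.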 Type of series: functional.

Series [22] has as its target Photoreceptor-specific nuclear receptor (Homo sapiens, UniProt Q9Y5X4). Type of series: functional.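 Note: potency for compounds that break the NR2E3 corepressor complex and count as activators.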
Series [23] addresses Peroxisome proliferator-activated receptor gamma/Nuclear receptor corepressor 2 (Homo sapiens, UniProt P37231+Q9Y618). Type of series: functional.
Series [24] concerns the target T3, Beta-galactosidase. Description: beta-galactosidase enzyme inhibitors and activators, dose response, artefact control for CCR6 antagonist project, biochemical, E. coli enzyme, set 3 (AID 504712). Type of series: functional.

Activity calls are given as the source filed them.

T1 sequence (P41143 whole entry): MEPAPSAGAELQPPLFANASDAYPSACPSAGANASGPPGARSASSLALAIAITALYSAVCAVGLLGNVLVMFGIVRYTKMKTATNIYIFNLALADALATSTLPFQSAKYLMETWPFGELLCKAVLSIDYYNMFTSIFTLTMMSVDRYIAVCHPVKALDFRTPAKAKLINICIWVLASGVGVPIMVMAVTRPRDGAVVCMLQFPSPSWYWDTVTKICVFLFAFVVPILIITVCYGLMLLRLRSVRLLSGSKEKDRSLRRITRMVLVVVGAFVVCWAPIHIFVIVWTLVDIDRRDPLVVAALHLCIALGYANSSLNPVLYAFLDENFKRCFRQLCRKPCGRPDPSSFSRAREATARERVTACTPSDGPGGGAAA
T3 sequence (Q8VNN2 whole entry): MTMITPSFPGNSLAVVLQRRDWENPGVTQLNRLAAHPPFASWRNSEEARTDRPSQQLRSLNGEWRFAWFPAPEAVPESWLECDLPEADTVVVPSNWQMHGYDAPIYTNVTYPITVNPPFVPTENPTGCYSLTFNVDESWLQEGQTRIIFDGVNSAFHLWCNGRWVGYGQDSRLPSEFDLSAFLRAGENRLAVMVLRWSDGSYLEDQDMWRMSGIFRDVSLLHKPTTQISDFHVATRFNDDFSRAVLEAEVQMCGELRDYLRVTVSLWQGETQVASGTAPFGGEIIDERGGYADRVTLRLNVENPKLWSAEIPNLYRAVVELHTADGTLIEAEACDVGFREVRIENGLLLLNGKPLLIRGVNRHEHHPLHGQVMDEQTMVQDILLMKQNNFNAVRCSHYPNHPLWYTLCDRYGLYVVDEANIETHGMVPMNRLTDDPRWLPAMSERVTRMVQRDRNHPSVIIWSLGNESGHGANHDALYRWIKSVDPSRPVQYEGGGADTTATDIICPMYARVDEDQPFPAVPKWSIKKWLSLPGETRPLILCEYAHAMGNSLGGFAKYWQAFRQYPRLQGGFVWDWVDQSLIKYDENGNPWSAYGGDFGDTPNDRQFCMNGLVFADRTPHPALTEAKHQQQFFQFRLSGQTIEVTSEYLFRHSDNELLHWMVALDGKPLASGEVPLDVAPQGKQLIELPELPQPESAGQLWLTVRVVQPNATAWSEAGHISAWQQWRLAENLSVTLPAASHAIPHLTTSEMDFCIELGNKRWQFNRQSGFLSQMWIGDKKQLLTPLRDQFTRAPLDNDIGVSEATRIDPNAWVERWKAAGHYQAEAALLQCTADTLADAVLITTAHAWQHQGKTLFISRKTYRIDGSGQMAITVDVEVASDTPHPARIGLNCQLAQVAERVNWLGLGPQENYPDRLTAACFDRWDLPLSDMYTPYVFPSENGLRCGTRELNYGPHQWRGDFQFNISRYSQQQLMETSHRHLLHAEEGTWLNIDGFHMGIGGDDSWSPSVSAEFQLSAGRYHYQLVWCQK
T2 sequence (P41145 whole entry): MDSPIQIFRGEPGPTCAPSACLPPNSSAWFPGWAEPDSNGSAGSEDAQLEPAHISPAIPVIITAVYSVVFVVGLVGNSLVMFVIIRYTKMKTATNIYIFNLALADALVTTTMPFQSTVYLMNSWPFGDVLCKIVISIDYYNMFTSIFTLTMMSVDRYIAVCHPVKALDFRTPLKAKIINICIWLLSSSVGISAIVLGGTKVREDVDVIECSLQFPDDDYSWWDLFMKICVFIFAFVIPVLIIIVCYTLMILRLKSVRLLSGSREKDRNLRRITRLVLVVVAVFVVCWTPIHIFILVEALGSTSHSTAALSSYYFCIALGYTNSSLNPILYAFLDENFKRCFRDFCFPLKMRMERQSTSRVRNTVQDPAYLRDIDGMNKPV
Sequence of Mu-type opioid receptor (P35372 whole entry): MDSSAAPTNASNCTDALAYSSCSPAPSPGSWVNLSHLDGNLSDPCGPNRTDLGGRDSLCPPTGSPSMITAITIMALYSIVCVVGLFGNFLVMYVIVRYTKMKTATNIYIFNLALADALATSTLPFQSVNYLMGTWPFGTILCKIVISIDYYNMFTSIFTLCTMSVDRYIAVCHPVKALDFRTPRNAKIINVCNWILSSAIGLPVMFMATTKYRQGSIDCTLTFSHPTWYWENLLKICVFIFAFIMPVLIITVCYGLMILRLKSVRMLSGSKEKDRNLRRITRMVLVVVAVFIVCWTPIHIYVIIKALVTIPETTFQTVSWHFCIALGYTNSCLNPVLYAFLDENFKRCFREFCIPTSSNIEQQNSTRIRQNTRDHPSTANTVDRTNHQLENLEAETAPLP
Sequence of Photoreceptor-specific nuclear receptor (Q9Y5X4 whole entry): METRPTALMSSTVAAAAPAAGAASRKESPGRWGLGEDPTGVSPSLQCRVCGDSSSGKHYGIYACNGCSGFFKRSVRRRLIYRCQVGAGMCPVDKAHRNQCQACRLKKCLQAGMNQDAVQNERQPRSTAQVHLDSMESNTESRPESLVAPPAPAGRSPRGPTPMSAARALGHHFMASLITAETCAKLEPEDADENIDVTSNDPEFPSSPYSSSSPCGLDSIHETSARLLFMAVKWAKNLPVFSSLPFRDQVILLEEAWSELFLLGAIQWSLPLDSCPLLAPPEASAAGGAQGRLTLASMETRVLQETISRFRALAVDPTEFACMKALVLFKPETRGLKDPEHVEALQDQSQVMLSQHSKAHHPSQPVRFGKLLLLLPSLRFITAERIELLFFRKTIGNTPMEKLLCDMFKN
Sequence of G-protein coupled receptor 35 (Q9HC97 whole entry): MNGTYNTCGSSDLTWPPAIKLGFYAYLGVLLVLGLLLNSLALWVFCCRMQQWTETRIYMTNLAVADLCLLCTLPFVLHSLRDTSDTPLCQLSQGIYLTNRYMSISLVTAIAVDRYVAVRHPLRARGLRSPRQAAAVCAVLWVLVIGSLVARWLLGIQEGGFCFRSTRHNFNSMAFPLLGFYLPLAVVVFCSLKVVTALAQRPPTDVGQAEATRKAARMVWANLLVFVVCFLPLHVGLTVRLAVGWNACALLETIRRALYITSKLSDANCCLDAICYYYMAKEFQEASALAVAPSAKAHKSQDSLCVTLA
Sequence of 26S proteasome non-ATPase regulatory subunit 14 (O00487 whole entry): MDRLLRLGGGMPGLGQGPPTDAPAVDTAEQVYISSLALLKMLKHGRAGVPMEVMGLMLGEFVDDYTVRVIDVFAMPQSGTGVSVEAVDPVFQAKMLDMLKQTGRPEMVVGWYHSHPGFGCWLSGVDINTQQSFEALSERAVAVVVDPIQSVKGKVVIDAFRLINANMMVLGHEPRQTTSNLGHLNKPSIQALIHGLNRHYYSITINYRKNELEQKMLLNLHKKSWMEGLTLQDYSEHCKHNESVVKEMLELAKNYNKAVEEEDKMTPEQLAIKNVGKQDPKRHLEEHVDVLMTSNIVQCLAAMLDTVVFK
Sequence of Cytochrome P450 2C9 (P11712 whole entry): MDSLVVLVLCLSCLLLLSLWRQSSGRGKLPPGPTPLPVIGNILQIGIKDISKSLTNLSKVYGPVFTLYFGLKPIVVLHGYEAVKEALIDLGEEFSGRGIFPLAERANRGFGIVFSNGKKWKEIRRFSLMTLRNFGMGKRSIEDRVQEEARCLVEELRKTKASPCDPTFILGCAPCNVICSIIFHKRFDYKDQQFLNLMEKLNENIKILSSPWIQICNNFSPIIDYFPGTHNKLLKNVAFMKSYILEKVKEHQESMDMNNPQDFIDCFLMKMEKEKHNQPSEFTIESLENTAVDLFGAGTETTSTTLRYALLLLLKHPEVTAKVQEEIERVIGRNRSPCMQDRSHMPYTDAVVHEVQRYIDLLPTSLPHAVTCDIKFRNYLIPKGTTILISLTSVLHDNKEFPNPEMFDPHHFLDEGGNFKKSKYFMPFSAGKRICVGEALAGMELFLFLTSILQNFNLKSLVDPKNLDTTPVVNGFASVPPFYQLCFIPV
Sequence of Sphingosine 1-phosphate receptor 2 (O95136 whole entry): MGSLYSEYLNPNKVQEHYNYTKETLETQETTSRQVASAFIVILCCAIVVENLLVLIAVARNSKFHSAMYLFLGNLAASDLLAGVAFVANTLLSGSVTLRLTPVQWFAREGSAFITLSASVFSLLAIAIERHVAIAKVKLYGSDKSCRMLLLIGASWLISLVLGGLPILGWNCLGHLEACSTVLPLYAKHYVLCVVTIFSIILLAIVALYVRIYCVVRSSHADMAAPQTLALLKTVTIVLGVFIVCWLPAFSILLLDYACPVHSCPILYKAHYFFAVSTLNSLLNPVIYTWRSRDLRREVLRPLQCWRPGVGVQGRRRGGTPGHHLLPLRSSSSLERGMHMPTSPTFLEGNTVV
Sequence of 72 kDa type IV collagenase (P08253 whole entry): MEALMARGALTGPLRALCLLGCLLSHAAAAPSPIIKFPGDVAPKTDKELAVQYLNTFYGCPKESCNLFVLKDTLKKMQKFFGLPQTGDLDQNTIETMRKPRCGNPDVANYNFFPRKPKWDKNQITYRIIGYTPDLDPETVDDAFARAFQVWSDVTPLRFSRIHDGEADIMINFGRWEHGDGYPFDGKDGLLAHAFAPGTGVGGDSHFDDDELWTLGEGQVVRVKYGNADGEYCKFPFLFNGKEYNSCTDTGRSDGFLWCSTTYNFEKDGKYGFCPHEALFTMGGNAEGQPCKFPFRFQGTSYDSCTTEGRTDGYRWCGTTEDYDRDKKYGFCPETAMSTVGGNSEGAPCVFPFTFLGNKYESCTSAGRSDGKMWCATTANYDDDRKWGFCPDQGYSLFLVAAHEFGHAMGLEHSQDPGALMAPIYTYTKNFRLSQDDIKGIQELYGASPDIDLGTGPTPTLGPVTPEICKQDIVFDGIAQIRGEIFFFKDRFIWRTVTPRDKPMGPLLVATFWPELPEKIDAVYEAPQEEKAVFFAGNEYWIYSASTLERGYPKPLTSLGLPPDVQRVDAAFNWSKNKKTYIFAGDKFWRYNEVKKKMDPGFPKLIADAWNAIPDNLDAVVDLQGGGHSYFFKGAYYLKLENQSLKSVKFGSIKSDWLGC

A word on the IC50: it is the concentration needed to halve the response being measured. `OCCC/N=C/c1c(-c2ccccc2)nn(-c2nc3ccccc3s2)c1O`: the IC50 in series [1] is > 80 µM (inactive).

Broadly, the EC50 is the concentration at which the effect is half-maximal. Take `COc1cc2c(c(OC)c1OC)-c1c(cc3c(c1OC)OCO3)C1OC2[C@@H](C)[C@H]1C` (stereo not given in full): the IC50 in series [2] is > 32 µM (inactive); in series [4] it was 10 µM (active); in series [6], 9.42 µM. For the same compound, the EC50 was > 32 µM (inactive) at Mu-type opioid receptor, > 32 µM (inactive) in [3] and > 31.5 µM (inactive) on Beta-galactosidase [5].

Broadly, the AC50 is the midpoint of the concentration-response curve, whichever way the signal moves. Regarding `Cc1cccc(CSc2cccc3cccnc23)c1`, the IC50 in series [2] is > 32 µM (inactive); in series [9], 10.1 µM (active); in [4], 8.68 µM (active); in series [6] it was above 32 µM; in series [12], 21.5 µM (active); in series [14], > 100 µM (inactive). Further, the IC50 on Prothrombin was > 100 µM (inactive). Also, the EC50 at Mu-type opioid receptor is > 32 µM (inactive); in series [3], > 32 µM (inactive); at Beta-galactosidase [7], > 40 µM (inactive); in [8] it was 0.307 µM (active); in series [10], 9.65 µM (active); on Beta-galactosidase [5], > 31.5 µM (inactive). For the same compound, the AC50 is 2.54 µM (active) in series [11], > 70 µM (inactive) in series [13], 7.99 µM (active) in [15] and “inconclusive” on Cytochrome P450 2C9.

On to `CCN(CC)c1ccc2c(Cl)c(Br)c(=O)oc2c1`, for which the results for the IC50 in [16] and in [17] were < 0.5 µM (active) and 2.53 µM (active), respectively. Besides, the EC50 is 3.1 µM (active) in series [18]; 2.96 µM (active) in [8]; 2.08 µM (active) in [20]; 4.88 µM (active) in series [10]; 2.75 µM (inconclusive) in [21]. Moreover, the CC50 in series [19] was > 40 µM (active).

Regarding `CCN(CC(=O)NC(C)(C)C)Cc1nc(O)c2cc(Br)cc(Br)c2n1`, the values for the IC50 (in series [22]; in series [23]; on Beta-galactosidase [24]) were > 39.8 µM (not active), 15 µM (not active) and > 66.6 µM (inactive), respectively.
